The results in this text go back to US11066399B2, “Ferroportin inhibitors” (Vifor (International) AG, priority 2015, dated 2021).

Each structure is given as a SMILES string. Marks after values point to notes of the source that are not given here.

Experiment [1] has as its target T1, ferroportin (Fpn) (Mus musculus, UniProt Q9JHI9).
T1 construct: host or cells: J774 mouse macrophage cell line, Fe(III)-NTA induced
T1 sequence (Q9JHI9 1-570): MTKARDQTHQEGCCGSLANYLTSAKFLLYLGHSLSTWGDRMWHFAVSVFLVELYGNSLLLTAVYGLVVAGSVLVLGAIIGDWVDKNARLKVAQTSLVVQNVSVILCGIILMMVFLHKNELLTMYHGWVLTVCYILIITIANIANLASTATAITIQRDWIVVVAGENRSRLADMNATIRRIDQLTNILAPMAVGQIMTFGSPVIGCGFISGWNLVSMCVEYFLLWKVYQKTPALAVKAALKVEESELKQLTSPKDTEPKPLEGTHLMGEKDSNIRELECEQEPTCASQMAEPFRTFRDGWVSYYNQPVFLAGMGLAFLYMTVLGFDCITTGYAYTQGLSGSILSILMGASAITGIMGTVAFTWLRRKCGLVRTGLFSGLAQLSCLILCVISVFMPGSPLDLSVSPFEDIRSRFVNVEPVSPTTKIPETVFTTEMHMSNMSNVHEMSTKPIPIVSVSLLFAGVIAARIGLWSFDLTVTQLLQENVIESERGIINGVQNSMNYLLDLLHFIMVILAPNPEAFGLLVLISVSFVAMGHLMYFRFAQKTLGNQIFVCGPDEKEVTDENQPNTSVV
In words: Hepcidin Internalization Assay (J774). It is filed as cell-based. To be noted: average (AVE) of multiple measurements; TMR-hepcidin 25 nM, J774 cells. The text has this:
This cellular assay allows quantification of the binding of hepcidin to ferroportin (Fpn) through microscopic detection of internalization of a fluorescently labeled hepcidin into J774 cells. […] Binding of hepcidin to Fpn triggers internalization and degradation of both hepcidin and Fpn. However, the TMR (6-carboxytetramethylrhodamine) fluorophore attached to hepcidin remains associated with the cell after degradation of the hepcidin peptide backbone. Therefore, microscopic detection of cell-associated TMR fluorescence is a measure of hepcidin binding to Fpn and internalization of hepcidin and Fpn. If TMR-hepcidin is prevented from binding to Fpn, cellular TMR fluorescence remains low (Dürrenberger et al, 2013). The effect of small molecular weight Fpn inhibitor compounds in this assay was evaluated in vitro as described below.
After overnight incubation, cells were washed 3 times with pre-warmed DMEM w/o phenol red, 30 μl/well of DMEM w/o phenol red was added after the final wash and 10 μl/well of dilution series of test compounds were added in triplicates. […] Cells were incubated in a total volume of 50 μl at 37° C. with 5% CO2 for 2 hours, then Hoechst 33342 dye was added to a final concentration of 0.5 μg/ml to stain nuclei and further incubated for 10 min. at 37° C. with 5% CO2. Cells were washed 3 times with PBS and fixed in 100 μl of 4% paraformaldehyde in PBS for 15 min. at room temperature. After removal of the paraformaldehyde solution, cells were washed 3 times with PBS leaving 100 μl per well and the plates were sealed with foil plate seal. TMR (530-550 nm excitation/575-625 nm emission/400 ms exposure time) and Hoechst 33342 (360-370 nm excitation/420-460 nm emission/10 ms exposure time) fluorescence images were acquired using a ScanR plate imager (Olympus) with a 20× high NA objective. Four pictures were acquired per well and fluorescence channel covering ca. 1500 cells per well. The acquired image data was analysed with the ScanR image analysis software. Image analysis included detection of nuclei (Hoechst 33342 fluorescence), identification of cell-associated regions, application of a virtual channel and thresholding for rolling-ball-type background reduction, followed by application of the Sum(Mean) algorithm to measure the TMR fluorescence associated with cells as a quantitative measure for internalized TMR-hepcidin. IC50 values were calculated with the Sum(Mean) raw data using “log(inhibitor) vs. response” curve fitting of Prism 5 software (GraphPad Software Inc., version 5.02).

A further experiment concerns the target T2, human Fpn (Homo sapiens, UniProt Q9NP59).
T2 construct: FLAG (C); made in house; host or cells: Pichia pastoris
T2 sequence (Q9NP59 1-571): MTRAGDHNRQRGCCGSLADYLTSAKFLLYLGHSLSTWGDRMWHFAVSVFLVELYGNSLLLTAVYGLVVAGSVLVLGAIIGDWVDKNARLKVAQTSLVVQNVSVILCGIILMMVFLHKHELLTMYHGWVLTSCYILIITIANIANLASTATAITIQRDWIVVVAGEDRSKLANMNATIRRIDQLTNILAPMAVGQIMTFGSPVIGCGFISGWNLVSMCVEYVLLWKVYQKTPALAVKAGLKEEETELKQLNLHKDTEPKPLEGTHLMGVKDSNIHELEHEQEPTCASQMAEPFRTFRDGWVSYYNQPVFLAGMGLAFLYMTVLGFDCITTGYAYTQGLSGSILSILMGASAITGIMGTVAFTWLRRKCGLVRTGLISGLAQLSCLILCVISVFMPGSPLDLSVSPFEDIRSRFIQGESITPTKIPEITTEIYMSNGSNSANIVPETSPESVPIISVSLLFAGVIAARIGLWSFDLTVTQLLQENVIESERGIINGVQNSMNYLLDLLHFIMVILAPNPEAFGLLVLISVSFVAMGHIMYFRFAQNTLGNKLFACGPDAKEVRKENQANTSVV
In words: Biophysical Ferroportin-Hepcidin Binding Assay (fluorescence polarization). Conditions: average (AVE) of multiple measurements; TMR-hepcidin binding to purified human Fpn; read-out: FP IC50. As to the method:
This biophysical assay was developed to confirm inhibition of hepcidin binding to ferroportin (Fpn) more directly. Incubation of TMR-hepcidin with purified human Fpn isolated from Pichia pastoris yeast cells expressing human Fpn with a C-terminal FLAG affinity tag (Bonaccorsi di Patti, 2014) leads to increased fluorescence polarization (FP) of the TMR-hepcidin ligand. Small molecular weight Fpn inhibitors were tested for inhibition of binding of TMR-hepcidin to Fpn, as detected by dose-dependent decrease of the TMR FP signal, as described in detail below.
A mixture of […] human Fpn and 30 nM TMR-hepcidin in FP assay buffer containing 50 mM Tris-HCl pH 7.3, 200 mM NaCl, 0.02% DDM, 0.1% BSA was plated into a 384 well black low volume round bottom plate (Corning, Cat. 3677) at 16 μl per well. 8 μl of serial dilutions of test compounds were added in duplicates to reach final Fpn and TMR-hepcidin concentrations of […] and 20 nM, respectively. Plates were incubated for 90 minutes at room temperature and parallel (S) and perpendicular (P) fluorescence was measured in a Synergy H1 fluorescence reader (BioTek). FP values were calculated in mP according to the following formula.

The next experiment has as its system anemic Wistar rats. In words: Prevention of iron absorption in anemic rats. To be noted: 1 h before 0.5 mg/kg ferrous sulfate. It is filed as in vivo, rat. The protocol: To assess the in vivo efficacy of ferroportin (Fpn) inhibitors to block iron absorption, a series of Fpn inhibitors were tested in an anemic rat model for iron absorption. Wistar rats (3-4 weeks old, n=5, Janvier Labs) were fed a low iron diet (Provimi-Kliba, Cat. 2039) until their hemoglobin (Hb) values reach 7-8 g/dl one day before dosing of the Fpn inhibitor compounds. One hour before oral application of 0.5 mg/kg of ferrous sulfate, test compounds formulated in methyl cellulose or Cremophor were dosed orally. Blood samples were taken by tail vein puncture one hour before administration of iron (−1 h), immediately after dosing of the Fpn inhibitors (0 h) and one hour (1 h), three hours (3 h) and occasionally up to 6 hours (6 h) after dosing of the test compounds. Serum iron levels were measured (Abbott Diagnostics, Cat. 6K95) and inhibition of the rise of serum iron three hours after dosing of the test compound was calculated as a measure for efficacy of the Fpn inhibitors in blocking iron absorption (Table 7).

The target of experiment [2] is T1, ferroportin (Fpn). In words: Ferroportin Ubiquitination and Degradation (immunoprecipitation, Western blot, J774 cells). The class given is cell-based. More on the design: key: +: comparable to hepcidin; −: no effect; +/−: intermediate effect. Conditions: ca. 10-fold IC50 concentration, visual inspection of Western blots. As to the method:
Exposure of cells expressing ferroportin (Fpn) to hepcidin is known to trigger ubiquitination and subsequent internalization and degradation of Fpn (Qiao, 2012). The potential of Fpn inhibitors to induce Fpn ubiquitination and degradation was investigated with an immunoprecipitation assay using the J774 mouse macrophage cell line which expresses Fpn upon treatment with iron.
Cells were incubated with synthetic human hepcidin (Bachem, Cat. H-5926) or Fpn inhibitor compounds for 10 min or 120 min. Cells were washed and lysed with ice-cold lysis buffer (Pierce, Life Technologies, Cat. 87787) including 1×HALT protease inhibitor cocktail (Life technologies, Cat. 78429) and 10 mM iodoacetamide (Sigma, Cat. 16125) to stabilize ubiquitinated proteins. Immunoprecipitation was done using the Pierce Classic IP Kit (Life Technologies, Cat. 26146) following the manufacturer's protocol. Briefly, 2 mg protein in 1.25 ml IP lysis buffer was incubated by mixing for 1 h at 4° C. with control agarose beads to pre-clear the lysate and reduce nonspecific signal. Unbound lysate was then incubated overnight with 12 μg per reaction of the affinity purified anti-Fpn antibody F308 that was raised against a GST fusion protein of mouse Fpn amino acids 224-308. Immune complexes were captured by pipetting 14 μl settled Pierce Protein A/G Plus Agarose beads (Life Technologies, Cat. 20423) per reaction and the slurry was incubated for 1.5 h at 4° C. with gentle end-over-end mixing. The beads were washed and immune complexes were eluted directly with 75 μl SDS NuPAGE LDS sample buffer (Life Technologies, Cat. NP0007) containing DTT (Life Technologies, Cat. NP0009). After immunoprecipitation samples were analyzed by Western blotting using a rabbit anti-mouse MTP1 antiserum (Alpha Diagnostic International, Cat. MTP11-A) and a mouse anti-mono- and polyubiquitinylated conjugates monoclonal antibody (Enzo Lifesciences, Cat. BML-PW8810) for detection of ferroportin and ubiquitin, respectively. Mouse monoclonal anti-rabbit IgG light chain (Abcam, Cat. ab99697) and anti-mouse IgG H&L (Abcam, Cat. ab6789) HRP conjugates were used as secondary antibodies.
A selection of eleven Fpn inhibitors were tested in this assay and compared to hepcidin.
Table 5 Summary of Fpn inhibitors tested in the Fpn ubiquitination and degradation assay.

A further experiment relates to naïve WT C57BL/6 mice. In words: Hypoferremia in naïve mice. The class given is in vivo, mouse. To be noted: injection of synthetic hepcidin in WT naïve mice, from the vehicle control, maximal effect at 3-4 hours. As to the method: Female C57BL/6 mice (Janvier, France) at age of 9 weeks were fed a standard diet (Harlan Provimi Kliba 3436) and treated per os (p.o.) with compounds or the corresponding amount of vehicle at a volume of 10 ml/kg body weight. Fpn inhibitors were formulated in 0.5% methylcellulose/water or 20% cremophor EL/water and dosed p.o. in mice at 10, 30 or 100 mg/kg body weight. Three hours later, mice were pre-terminally anesthetized in isoflurane chambers and blood was collected by retro-orbital bleeding. Mice were sacrificed by cervical dislocation and spleens, livers and duodena were harvested and used for biomarker analysis. All experiments have been conducted in compliance with the license approved by the responsible veterinarian authorities. Serum was isolated by centrifugation of blood into gel-containing microtainers and serum iron was determined by the MULTIGENT Iron assay (Abbott Diagnostics, 6K95). Eight mice per group were used and one-way ANOVA with Bonferroni's multiple comparison test was performed to analyze the statistical differences between the experimental groups.
Relative serum iron reduction at 3 h after dosing was calculated by subtracting the average of serum iron values of animals dosed with the Fpn inhibitor from that of vehicle-treated animals. The difference in average serum iron values between vehicle and compound treated groups was then divided by the average of serum iron of the vehicle control group and listed as percentage.

As to `O=C(NCc1ccccc1F)c1coc(C2CN(CCCc3nc4ccccc4[nH]3)C2)n1` [Example 233], the concentration for half-maximal inhibition (IC50) against ferroportin (Fpn) [1] is 16 µM; at human Fpn it was 6.78 µM.

Regarding `Cc1cccnc1CNC(=O)c1csc(CCNCc2nc3ccccc3[nH]2)n1` [Example 55], the IC50 against ferroportin (Fpn) [1] turned out to be 0.015 µM. Also, the “Serum Iron Inhibition (%) at 3 h” value in the experiment on anemic Wistar rats (Dose 3 mg/kg oral) was 54*** %; in the experiment on anemic Wistar rats (Dose 10 mg/kg oral) it was 72*** %.

Take `O=C(NCc1ncccc1F)c1coc(CCNCc2nc3ccccc3[nH]2)n1` [Example 126]: on ferroportin (Fpn) [2], the “Fpn Degradation (120 min.)” value was “+” and the “Fpn Ubiquitination (10 min.)” value is “+/−”.

With `O=C(NCc1ccccn1)c1csc2c1CCN(CCc1nc3ccccc3[nH]1)C2` [Example 49], the values for the half-inhibitory concentration (IC50) against ferroportin (Fpn) [1] and on human Fpn were 30.6 µM and 24 µM, respectively.

`CC[C@H](C)[C@@H]1NC(=O)[C@@H](NC(=O)[C@@H](NC(=O)[C@@H]2CCCN2C(=O)[C@H](Cc2ccccc2)NC(=O)[C@H](Cc2c[nH]cn2)NC(=O)[C@@H](NC(=O)[C@@H](N)CC(=O)O)[C@@H](C)O)[C@@H](C)CC)CSSC[C@@H](C(=O)N[C@@H](CCCCN)C(=O)N[C@H](C(=O)O)[C@@H](C)O)NC(=O)[C@@H]2CSSC[C@@H]3NC(=O)[C@@H]4CSSC[C@H](NC(=O)[C@H](Cc5ccccc5)NC1=O)C(=O)N[C@@H](CSSC[C@H](NC(=O)[C@H](CCCCN)NC(=O)[C@H](CO)NC(=O)[C@H](CCCNC(=N)N)NC(=O)[C@H](Cc1c[nH]cn1)NC3=O)C(=O)NCC(=O)N[C@@H](CCSC)C(=O)N2)C(=O)NCC(=O)N4` [hepcidin, reference compound]: on ferroportin (Fpn) [2], the “Fpn Degradation (120 min.)” value was “+” and the “Fpn Ubiquitination (10 min.)” value is recorded as “+”. Further, the “reduction of serum iron levels” value with naïve WT C57BL/6 mice is 40-50%.
